According to publication PMC4758734, “Purification and Characterization of Glutaminase Free Asparaginase from Enterobacter cloacae: In-Vitro Evaluation of Cytotoxic Potential against Human Myeloid Leukemia HL-60 Cells” (PLoS ONE, 2016):

Test system: T1, glutaminase free asparaginase from Enterobacter cloacae
T1 construct: gene ansB; native, purified from culture supernatant (ammonium sulphate, DEAE-cellulose, Sephadex G-100); EC 3.5.1.1
Experiment: Nesslerization (ammonia release), Lineweaver-Burk plot
Assay type: biochemical
Conditions: 0.05 M phosphate buffer pH 7.5, 37°C; L-asparagine 0.2–24 mM

Molecule `NC(=O)C[C@H](N)C(=O)O` [L-asparagine] has a Km of 1580 µM.
